Data on three molecules can be found in paper PMC5431889, “Stapled BIG3 helical peptide ERAP potentiates anti-tumour activity for breast cancer therapeutics” (Scientific Reports, 2017).

One may read the IC50 as the concentration at which inhibition is half-maximal. For orientation: Kd means the free concentration of one partner at which half of the binding sites on the other are occupied at equilibrium, for simple one-to-one binding.

Where a SMILES comes first, the peptide text is derived from it.

A short description of series [1]: Circular dichroism, α-helical content. It counts as physicochemical. Conditions: CD 185-265 nm, 25 °C, 50 μg mL−1 in 10 mM sodium phosphate buffer pH 7.0. On the procedure: CD spectrum in the range of 185 to 265 nm was recorded at 25 °C in a 2 mm-path quartz cuvette. Protein concentration was 50 μg mL^−1 in 10 mM sodium phosphate buffer (pH 7.0). Molar ellipticity [θ] was calculated.

Series [2] deals with MCF-7 cells. It counts as cell-based, human. As to conditions: 96 h. The text has this:
After […] ERAP). Microarray analysis. […]

In series [3] the test system is BIG3-PHB2 complex and ERα signalling in tumours. Put plainly: Co-immunoprecipitation, RT-PCR and immunoblot analysis of excised KPL-3C tumours. It counts as in vivo, mice. On the procedure:
Immunoblot analyses were performed as described previously. After SDS-PAGE, the membranes were blocked with 4% BlockAce solution (Dainippon Pharmaceutical) for 3 h and then incubated with antibodies against the following proteins: BIG3 (1:1,000)[10]; PHB2 (1:1,000, Abcam); Akt (1:1,000), phospho-Akt (S473) (587F11, 1:1,000); p44/42 MAPK (1:1,000), phospho-p44/42 MAPK (T202/Y204) (1:1,000); mTOR (1:1,000); phospho-mTOR (S2448) (1:1,000); S6K (1:1,000); phopho-S6K (T389) (1:1,000); α/β-tubulin (1:1,000) (Cell Signalling Technology); and LMNB1 (1:100, Sigma). After incubation with an HRP-conjugated secondary antibody (anti-mouse IgG-HRP, 1:5,000; anti-rat IgG-HRP; 1:5,000; or anti-rabbit IgG-HRP, 1:1,000; Santa Cruz Biotechnology) for 1 h, the blots were developed with an enhanced chemiluminescence (ECL) system (GE Healthcare) and scanned using an Image Reader LAS-3000 mini (Fujifilm). All the experiments were performed in triplicate at a minimum. Full-length images of immunoblots are shown in Supplementary Fig. S5. […]
The expression of the ERα target genes (TFF1 and CCND1) was evaluated by real-time RT-PCR as described previously. Each sample was normalized to the β 2-MG mRNA content, and the results were expressed as the fold increase over untreated cells (set at 1.0). […]
The tumour volume was measured with calipers, after which time the mice were sacrificed and tumours excised. […]
In general terms: In western blotting, separated proteins are transferred to a membrane and probed.

In series [4] the test system is KPL-3C orthotropic breast cancer xenografts. Put plainly: In vivo tumour growth inhibition, KPL-3C orthotopic xenografts. More on the design: species or system mice. Conditions: intraperitoneal, E2 6 μg per day, n = 5. The protocol:
KPL-3C cell suspensions (1 × 10^7 cells per mouse) were mixed with an equal volume of Matrigel (Corning) and injected (200 μL total) into the mammary fat pads of 6-week-old female BALB/c nude mice (Charles River Laboratories). The mice were housed in a pathogen-free isolation facility with a 12 h light/dark cycle and were fed rodent chow and water ad libitum. The tumours developed over a period of a few days, reaching sizes of approximately 100 mm^3 [calculated as 1/2 × (width × length^2)], upon injection of 6 μg per day of E2 solution to the neck skin. For intraperitoneal administration, the mice were randomized into 10 treatment groups (five animals per group): (1) no treatment; (2) 6 μg per day E2; (3) E2 + 1.4 mg kg^−1 day^−1 ERAP daily; (4) E2 + 1.4 mg kg^−1 day^−1 ERAP every 4 days; (5) E2 + 14 mg kg^−1 day^−1 ERAP daily; (6) E2 + 14 mg kg^−1 day^−1 ERAP every 4 days; (7) E2 + 1.4 mg kg^−1 day^−1 stERAP-6 daily; (8) E2 + 1.4 mg kg^−1 day^−1 stERAP-6 every 4 days; (9) E2 + 14 mg kg^−1 day^−1 stERAP-6 daily; and 10() E2 + 14 mg kg^−1 day^−1 stERAP-6 every 4 days. For intravenous administration, the mice were randomized into 10 treatment groups (five animals per group): (1) no treatment; (2) 6 μg per day E2; (3) E2 + 0.1 mg kg^−1 day^−1 stERAP-6 daily; (4) E2 + 1 mg kg^−1 day^−1 stERAP-6 daily; (5) E2 + 10 mg kg^−1 day^−1 stERAP-6 daily; (6) E2 + 0.1 mg kg^−1 day^−1 stERAP-6 weekly; (7) E2 + 1 mg kg^−1 day^−1 stERAP-6 weekly; (8) E2 + 10 mg kg^−1 day^−1 stERAP-6 weekly; (9) E2 + 1 mg kg^−1 day^−1 alanine-mutant stERAP-6 daily; and (10) E2 + 10 mg kg^−1 day^−1 alanine-mutant stERAP-6 daily. E2 was delivered via the application of a solution to the neck skin as previously noted.
The tumour volume was measured with calipers, after which time the mice were sacrificed and tumours excised. TGI was calculated according to the formula: [1 − (T − T0)/(C − C0)] × 100, where T and T0 are the mean tumour volumes at day 28 or 35 and day 1, respectively, for the experimental group, and C and C0 are those for the E2-treated group. The organs (heart, lung, liver, kidney, pancreas, and brain) were also immediately removed. A portion of each tissue was fixed in 10% neutral formalin for histological examination, while the remaining tissue sample was frozen and preserved at −80 °C for subsequent western blot analysis. All the experiments were performed in accordance with the guidelines of the animal care and use facility at Tokushima University.

Series [5] deals with MCF-7 cells. As to conditions: E2-dependent breast cancer cell growth; cited from earlier work. On the procedure:
We previously developed a dominant-negative peptide, ER α activity-regulator synthetic peptide (ERAP), which specifically disrupts the BIG3-PHB2 interaction and inhibits multiple ERα-signalling pathways driving breast cancer cell growth by reactivating tumour-suppressive activity of PHB2[10]. […] However, its inhibitory effect was only maintained for 24 h, most likely due to its high susceptibility to proteolytic degradation.

The next series has as its system TAM-R MCF-7 cells. Put plainly: MTT assay, tamoxifen-resistant (TAM-R) MCF-7 cell growth. In kind it is cell-based, human. Conditions: 10 nM E2 and 1 μM tamoxifen, single treatment at 0 h, up to 96 h; three independent experiments.
Series [6] deals with MCF-7 cells. Briefly: Cell cycle assay by flow cytometry (propidium iodide). It counts as cell-based, human. Conditions: 10 nM E2, 10 μM stERAP-6, 1 μM tamoxifen. The protocol: Cells were fixed in cold 70% ethanol, incubated with 20 µg mL^−1 propidium iodide (Sigma) and 1 mg mL^−1 ribonuclease A (Sigma), and analysed by flow cytometry using a FACSCalibur with CellQuest software (BD).

Series [7] concerns the target T1, His-tagged recombinant PHB2 (UniProt Q99623 1-299).
T1 construct: PHB2 (prohibitin 2), recombinant, His-tagged; also called His-PHB2; source: recombinant
Put plainly: SPR; Biacore 3000; recombinant PHB2 bound to a CM5 sensor chip, peptides as analytes at the indicated concentrations; BIAevaluation software. Conditions: both partners purified. (In general: Surface plasmon resonance follows binding to a sensor surface in real time, without labels.)

The next series has as its target prohibitin 2 (human (endogenous in MCF-7 and KPL-3C), UniProt Q99623 1-299). Put plainly: cell-based or functional assay.

Chain of prohibitin 2 (Q99623 whole entry): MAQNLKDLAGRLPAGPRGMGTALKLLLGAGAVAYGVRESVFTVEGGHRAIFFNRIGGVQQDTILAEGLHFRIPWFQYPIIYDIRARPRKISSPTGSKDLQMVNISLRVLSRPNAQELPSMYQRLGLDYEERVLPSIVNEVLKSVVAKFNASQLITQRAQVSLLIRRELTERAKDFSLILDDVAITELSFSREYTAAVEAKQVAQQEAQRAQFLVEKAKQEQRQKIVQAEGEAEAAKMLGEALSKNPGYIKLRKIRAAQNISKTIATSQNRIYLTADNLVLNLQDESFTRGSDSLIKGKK
T1 sequence (Q99623 whole entry): as above
Description for TAM-R MCF-7 cells: (a) MTT assays evaluating the inhibitory effect of unstapled, original ERAP (left) and stERAP-6 (right) on the growth of tamoxifen-resistant (TAM-R) MCF-7 cells. TAM-R MCF-7 cells were treated with unstapled original ERAP or stERAP-6 in the presence of 10 nM E2 and 1 μM tamoxifen (TAM) at 0 h. The data represent the mean ± s.d. of three independent experiments.

In turn, `CSCC[C@H](NC(=O)[C@H](CCC(N)=O)NC(=O)CNC(=O)CNC(=O)CNC(=O)[C@H](CCCNC(=N)N)NC(=O)[C@H](CCCNC(=N)N)NC(=O)[C@H](CCCNC(=N)N)NC(=O)[C@H](CCCNC(=N)N)NC(=O)[C@H](CCCNC(=N)N)NC(=O)[C@H](CCCNC(=N)N)NC(=O)[C@H](CCCNC(=N)N)NC(=O)[C@H](CCCNC(=N)N)NC(=O)[C@H](CCCNC(=N)N)NC(=O)[C@H](CCCNC(=N)N)NC(=O)[C@@H](N)CCCNC(=N)N)C(=O)N[C@@H](CC(C)C)C(=O)N[C@@H](CO)C(=O)N[C@@H](CC(=O)O)C(=O)N[C@@H](CC(C)C)C(=O)N[C@H](C(=O)N[C@@H](CC(C)C)C(=O)N[C@@H](CCC(N)=O)C(=O)N[C@@H](CC(C)C)C(=O)N[C@@H](CCCNC(=N)N)C(=O)N[C@@H](CCC(N)=O)C(=O)N[C@@H](CCCNC(=N)N)C(=O)O)[C@@H](C)O` [ERAP] (H-RRRRRRRRRRRGGGQMLSDLTLQLRQR-OH; N-terminus and C-terminus assumed) displayed a α-helical content in series [1] of 21.4%. This molecule returned an IC50 in the series on MCF-7 cells [2] of 7.97 µM. In series [3] (intraperitoneal treatment every 4 days for 28 days), the “E2-induced expression of TFF1 and CCND1 and phosphorylation levels of Akt and MAPK in tumours” value is “did not”. For the same molecule, in [3] (intraperitoneal treatment every 4 days, co-immunoprecipitation), the “inhibition of endogenous BIG3-PHB2 complex formation in tumours” value is listed as “but not with unstapled original ERAP”. Also, the “TGI on day 28” value turned out to be 36.9% in series [4] (1.4 mg kg−1 every 4 days), 94.2% in series [4] (1.4 mg kg−1 once a day for 28 days), 40.3% in series [4] (14 mg kg−1 every 4 days) and 94.5% in series [4] (14 mg kg−1 once a day for 28 days). Besides, the “duration of inhibitory effect” value with MCF-7 cells [5] is 24 h. Besides, the “inhibition of growth of TAM-R MCF-7 cells” value with TAM-R MCF-7 cells is “reduced after 24 h treatment”.

Turning to `CC/C(=C(\c1ccccc1)c1ccc(OCCN(C)C)cc1)c1ccccc1` [tamoxifen], the “apoptotic (sub-G1) cell population” value in the series with MCF-7 cells [6] is reported as 7.44%.

B1: ERα activity-regulator synthetic peptide (native ERAP; 11R-GGG-QMLSDLTLQLRQR) (peptide)
peptide: RRRRRRRRRRRGGGQMLSDLTLQLRQR
notes: membrane-permeable polyarginine (11R) and GGG linker, printed as 11R-GGG; also called unstapled original ERAP; dominant-negative peptide; source: synthetic peptide
As for B1, the Kd in series [7] amounted to 12.8 µM. Besides, the “IC50 of E2-dependent MCF-7 cell growth at 96 h after a single treatment (MTT); the peptide blocks BIG3-PHB2” value in the series with prohibitin 2 amounted to 7.97 µM.
